According to US6410588B1, “Use of cannabinoids as anti-inflammatory agents” (priority 1998, dated 2002):
Entries after “also recorded” stand apart in the source; their conditions may differ. Where two headings read alike, the source gives them in different places.

Experiments:
[1] = molecular target: CB2 (Homo sapiens, UniProt P34972); conditions: cited from earlier work
[2] = test system: TNFα release; test: TNFα release by LPS-stimulated human PBMC; type: cell-based; conditions: for TNF α: LPS 10 ng/ml 24 hours
Method: (§1) CBD was dissolved in ethanol/DMSO.
(§2) Peripheral blood mononuclear cells (PBMC) were isolated from the whole blood of healthy donors by Ficoll Hypaque gradient. […] After this 6 hour pretreatment period, the cells were stimulated with either LPS from Salmonella typhimirium, 10 ng/ml, for 24 hours (for TNF and IL-1β) or with PHA, 5 μg/ml, for 72 hours (for IFNγ) Viability of the PBMC was assessed with the MTT test.
(§3) Human PBMC were cultured and stimulated with or without CBD, as described in Materials and Methods. The stimulus for TNF and IL-1 production was LPS, the stimulus for IFNγ production was PHA. The results are the mean of triplicate wells±SEM. ND=not done.

[3] = test system: IL-8; test: human rheumatoid synovial cell IL-8 production (ELISA); type: cell-based; conditions: for IL-8, mean: 48 hours culture
Method: Synovial membrane tissue was obtained from a patient fulfilling the revised American College of Rheumatology criteria for rheumatoid arthritis who underwent joint replacement surgery. Synovial cell cultures were prepared as described. Briefly, synovial membrane tissue was digested with collagenase type A (1 mg/ml) and DNAase I (0.15 mg/ml) in RPMI 1640 containing 5% FCS for 2 hours at 37° C.
Similarly, rheumatoid synovial cells spontaneously produce cytokines when cultured in vitro. […] With restricted number of human synovial cells in this sample, the optimal dose for inhibiting TNFα may have been missed.

[4] = test system: animal models predictive of antipsychotic activity; conditions: in vivo; cited from earlier work
[5] = test system: spleen cells; test: mixed leukocyte reaction (MLR); type: cell-based, mouse (BALB/c); conditions: above 4 μg/ml CBD
Method: Cultures were pulsed with ^3H-thymidine and harvested 18 hours later.
Spleen cells (1×10^6/well) were co-cultured in triplicate wells of flat-bottom microtiter plates (Nunc), with an equal number of irradiated ([…]) syngeneic or allogeneic splenocytes in a final volume of 200 μl/well. After 3-days incubation, the cells were labelled with ^3H-thymidine (1 μCi/well) and harvested, following an additional incubation of 18 h, as described above.

[6] = test system: TNFα production; test: TNFα production by Thioglycollate induced macrophages; type: cell-based, mouse (C57BL/6); parameters: TNFα production, 6 h / TNFα production, 24 h: unit not given here; conditions: for inhibition at 2 µg/mL / inhibition at 4 µg/mL / inhibition at 6 µg/mL: Mus musculus, Macrophage
Source text: […] […] IFN-γ and IFN-α were purchased from Boehringer Mannheim, Germany.
Thioglycoiate-elicited peritoneal macrophages from C57BL/6 mice.

[7] = test system: chronic CIA; test: chronic CIA, oral feeding of CBD; type: in vivo, mouse; conditions: 25 mg/kg oral daily
Method: Controls were fed vehicle (olive oil).
For the chronic experiments, 6 weeks old mice were immunized with mouse CII (100 μg CII i.d.=intradermal). From day 30 after immunization onwards, the mice developed a chronic relapsing arthritis, which was monitored for 5 weeks, in the same way as described above.
For the chronic experiment with mouse CII, mice were treated from the first symptoms of arthritis every other day, for 5 weeks. […] Again, mice injected with Vehicle alone served as controls (n=7). For the oral route, the treatment was administered daily at a dose of 25 mg/kg (n=6) and control mice were fed olive oil (n=6).

[8] = test system: schizophrenia; conditions: in vivo; cited from earlier work
[9] = test system: Thioglycollate induced macrophages (Mφ); test: viability of macrophages cultured with CBD; type: cell-based, mouse; conditions: 8 μg/ml CBD; after 48 hr
[10] = test system: IL-2; conditions: cited from earlier work
[11] = test system: collagen induced arthritis (CIA); test: histological analysis of hind paw joints in CIA; type: in vivo, mouse; conditions: for joints completely protected: hind paws, day 10, control: no normal joints
Method: The hind paws were assessed as normal, mildly affected or severely destroyed.
Hind paws and knee joints were removed post mortem on the tenth day of arthritis, fixed in formalin and decalcified in 5% EDTA. Paws and knees were then embedded in paraffin, sectioned and stained with haematoxylin and eosin. Arthritic changes in the ankle, the metatarsophalangeal joints, the proximal interphalangeal and the distal interphalangeal joints were scored blindly as mild (mild synovial hyperplasia), moderate (pannus formulation and erosions limited to the cartilage-pannus junction), or severe (=extended bone and cartilage erosions with loss of joint architecture).

[12] = test system: IL-1β release; test: IL-1β release by LPS-stimulated human PBMC; type: cell-based; conditions: for IL-1β: LPS 10 ng/ml 24 hours, mean ± SEM
Method: as §1, §2, §3

[13] = test system: serum TNFα; test: serum TNFα level after LPS stimulation (bioassay); type: in vivo, mouse (C57BL/6); conditions: 10 mg/kg (200 μg/mouse) ip or s.c. with 100 μg LPS ip; 90 min
Method: After 90 min. the mice were bled and serum TNFα level was determined by bioassay.

[14] = test system: mRNA of IL-1, IL-6 and TNFα; conditions: BALB/C mice injected with cannabidiol; cited from earlier work
[15] = lower concentrations of CBD (0.1 to 5 μg/ml)
[16] = LPS 1 μg/ml + IFNγ 10 U/ml, CBD 2 μg/ml, 24 h

CB2, sequence (P34972 whole entry, species assumed): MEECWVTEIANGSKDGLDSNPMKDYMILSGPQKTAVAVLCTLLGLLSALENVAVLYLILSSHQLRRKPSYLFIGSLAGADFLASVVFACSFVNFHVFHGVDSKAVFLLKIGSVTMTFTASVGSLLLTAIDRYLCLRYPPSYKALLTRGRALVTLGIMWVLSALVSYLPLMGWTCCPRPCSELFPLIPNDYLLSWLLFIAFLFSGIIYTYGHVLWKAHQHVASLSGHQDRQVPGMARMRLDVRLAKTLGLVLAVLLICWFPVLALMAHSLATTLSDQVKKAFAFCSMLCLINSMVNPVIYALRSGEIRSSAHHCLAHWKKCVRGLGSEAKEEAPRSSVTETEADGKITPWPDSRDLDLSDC

C=C(C)[C@@H]1CCC(C)=C[C@H]1c1c(O)cc(CCCCC)cc1O [CBD, Cannabidiol]
binding to peripheral receptor CB2 [1]: does not bind
TNF α ([2]; CBD 0.1 μg/ml, mean of triplicate wells ± SEM): 2959 ± 434 pg/mL
TNF α ([2]; CBD 1 μg/ml, mean ± SEM): 2503 ± 181 pg/mL
TNF α ([2]; CBD 2.5 μg/ml, mean ± SEM): 3071 ± 296 pg/mL
TNF α ([2]; CBD 5 μg/ml, mean ± SEM): 4152 ± 499 pg/mL
TNF α ([2]; CBD 10 μg/ml, mean ± SEM): 10,964 ± 1714 pg/ml
TNF α ([2]; CBD 20 μg/ml, mean ± SEM): 15,071 ± 2594 pg/ml
TNF α ([2]; CBD 30 μg/ml, mean ± SEM): 20,824 ± 1046 pg/ml
effect on LPS-induced TNFα release (in words) ([2]; higher concentrations of CBD): increased their release
effect on LPS-induced TNFα release (in words) [2, 15]: significantly suppressed
IL-8 release (in words) [3]: dose-dependent inhibition
IL-8, mean ([3]; CBD 0.1 μg/ml): 174 ng/mL
IL-8, mean ([3]; CBD 1 μg/ml): 183 ng/mL
IL-8, mean ([3]; CBD 20 μg/ml): 87 ng/mL
efficacy in animal models predictive of antipsychotic activity [4]: effective
3H-thymidine uptake in MLR [5]: slight decrease
TNFα production, 6 h ([6]; LPS 1 μg/ml + IFNγ 10 U/ml, CBD 2 μg/ml, 6 h): 744
% INHIBITION of TNFα production, 24 h [6, 16]: enhanced 72%
TNFα production, 24 h [6, 16]: 4578
TNFα production, 6 h ([6]; LPS 1 μg/ml + IFNγ 10 U/ml, CBD 4 μg/ml, 6 h): 478
TNFα production, 6 h ([6]; LPS 1 μg/ml + IFNγ 10 U/ml, CBD 6 μg/ml, 6 h): 548
TNFα production, 24 h ([6]; LPS 1 μg/ml + IFNγ 10 U/ml, CBD 4 (μg/ml), 24 h): 437
TNFα production, 24 h ([6]; LPS 1 μg/ml + IFNγ 10 U/ml, CBD 6 (μg/ml), 24 h): 207
TNFα production, 6 h ([6]; LPS 1 μg/ml, CBD 2 μg/ml, 6 h): 543
TNFα production, 6 h ([6]; LPS 1 μg/ml, CBD 4 μg/ml, 6 h): 271
TNFα production, 6 h ([6]; LPS 1 μg/ml, CBD 6 μg/ml, 6 h): 290
TNFα production, 24 h ([6]; LPS 1 μg/ml, CBD 2 (μg/ml), 24 h): 90
TNFα production, 24 h ([6]; LPS 1 μg/ml, CBD 4 (μg/ml), 24 h): 36
TNFα production, 24 h ([6]; LPS 1 μg/ml, CBD 6 (μg/ml), 24 h): 34
inhibition at 2 µg/mL ([6]; 6 h, LPS 1 μg/ml + IFNγ 10 U/ml, CBD 2 μg/ml, 6 h, read-out: % INHIBITION of TNFα production, 6 h): 0%
inhibition at 4 µg/mL ([6]; 6 h, LPS 1 μg/ml + IFNγ 10 U/ml, CBD 4 μg/ml, 6 h, read-out: % INHIBITION of TNFα production, 6 h): 33%
inhibition at 6 µg/mL ([6]; 6 h, LPS 1 μg/ml + IFNγ 10 U/ml, CBD 6 μg/ml, 6 h, read-out: % INHIBITION of TNFα production, 6 h): 24%
inhibition at 2 µg/mL ([6]; 6 h, LPS 1 μg/ml, CBD 2 μg/ml, 6 h, read-out: % INHIBITION of TNFα production, 6 h): 9%
inhibition at 4 µg/mL ([6]; 6 h, LPS 1 μg/ml, CBD 4 μg/ml, 6 h, read-out: % INHIBITION of TNFα production, 6 h): 54%
inhibition at 6 µg/mL ([6]; 6 h, LPS 1 μg/ml, CBD 6 μg/ml, 6 h, read-out: % INHIBITION of TNFα production, 6 h): 51%
inhibition at 4 µg/mL ([6]; 24 h, LPS 1 μg/ml + IFNγ 10 U/ml, CBD 4 μg/ml, 24 h, read-out: % INHIBITION of TNFα production, 24 h): 84%
inhibition at 6 µg/mL ([6]; 24 h, LPS 1 μg/ml + IFNγ 10 U/ml, CBD 6 μg/ml, 24 h, read-out: % INHIBITION of TNFα production, 24 h): 92%
inhibition at 2 µg/mL ([6]; 24 h, LPS 1 μg/ml, CBD 2 μg/ml, 24 h, read-out: % INHIBITION of TNFα production, 24 h): 67%
inhibition at 4 µg/mL ([6]; 24 h, LPS 1 μg/ml, CBD 4 μg/ml, 24 h, read-out: % INHIBITION of TNFα production, 24 h): 87%
inhibition at 6 µg/mL ([6]; 24 h, LPS 1 μg/ml, CBD 6 μg/ml, 24 h, read-out: % INHIBITION of TNFα production, 24 h): 88%
effect on TNFα production (in words) ([6]; low concentrations of CBD): enhance TNFα production
effect on TNFα production (in words) ([6]; summary of Table 1): inhibits TNFα production
progression of chronic CIA (in words) [7]: suppression of the progression of chronic CIA
area under the curve of arthritis score ([7]; controls 72.3): 49.7
antipsychotic effects in schizophrenia [8]: antipsychotic effects
viability of Mφ [9]: **After 48 hr the Mφ cultured with 8 μg/ml CBD were only 70% viable
IL-2 secretion [10]: did not affect IL-2 secretion
joints moderately or severely affected ([11]; 5 mg/kg CBD, control mice 69%): 42%
joints completely protected ([11]; 5 mg/kg CBD): 33%
joints completely protected ([11]; 10 mg/kg CBD): 11%
IL-1β ([12]; CBD 0.1 μg/ml): 621 ± 82 pg/mL
IL-1β ([12]; CBD 1 μg/ml): 671 ± 74 pg/mL
IL-1β ([12]; CBD 2.5 μg/ml): 630 ± 81 pg/mL
IL-1β ([12]; CBD 5 μg/ml): 908 ± 99 pg/mL
IL-1β ([12]; CBD 10 μg/ml): 1575 ± 335 pg/mL
IL-1β ([12]; CBD 20 μg/ml): 2292 ± 251 pg/mL
IL-1β ([12]; CBD 30 μg/ml): 4158 ± 313 pg/mL
effect on LPS-induced IL-1β release (in words) ([12]; higher concentrations of CBD): increased their release
effect on LPS-induced IL-1β release (in words) [12, 15]: significantly suppressed
serum TNFα level (in words) [13]: decreases serum TNFα production; also recorded: reduces serum TNFα levels
level of mRNA of IL-1, IL-6 and TNFα [14]: did not show significant change
